From paper PMC6270201, “Eco-Friendly Synthesis and Antiproliferative Evaluation of Some Oxygen Substituted Diaryl Ketones” (Molecules, 2013)

Assays:
[1] = system: Balb/3T3 non-tumor fibroblasts; assay: MTT reduction assay, non-tumor fibroblasts; assay type: cell-based; conditions: Mus musculus, 48 h incubation, mean of at least three experiments, read-out: EC50 ± SEM BALB/3T3
Experimental: (§1) The oxygen-substituted diaryl ketones 3–23 were evaluated for their in vitro antiproliferative activity on a panel of four cell lines, including non-tumor fibroblasts (Balb/3T3) and three human-derived tumor cell lines, namely DU-145 (prostate), T24 (bladder) and MCF7 (breast), using the conventional microculture tetrazolium reduction assay.
(§2) These values were calculated from their effects on MTT reduction in three cancer cell lines and Balb/3T3 non transformed mouse fibroblasts as a function of their concentration during 48 h of incubation. All three cancer cell lines were similarly sensitive to these compounds. […] The biological activity differences of compounds 12 and 22 with respect to their analogues could be attributed to the 3,4,5-trimethoxy substitution on the A-phenyl ring. According to literature precedents, the 3,4,5-trimethoxyphenyl ring is considered essential for the antitubulin activity of a broad variety of antimitotic compounds [36, 38, 39, 40, 41, 42, 43, 44, 45]. […] In this context, only compound 22 have a good mean selectivity index (2.45).
(§3) Human cancer cell lines (T24, DU-145, MCF7) were cultured in high-glucose Dulbecco's modified Eagle medium (Gibco, Grand Island, NY, USA) supplemented with 10% foetal calf serum, penicillin (100 U/mL), and streptomycin (100 μg/mL). Balb/3T3 cells (normal mouse fibroblasts) were cultured in the same medium, except that the foetal calf serum was replaced by 10% newborn calf serum. All cultures were kept at 37 °C in 95% air/5% CO2 at 100% humidity. Phosphate-buffered saline (PBS) was purchased from Gibco. Cells were incubated at the indicated times at 37 °C with or without hydroquinones at various concentrations.
(§4) The cytotoxicity of the bis aryl ketones was assessed by following the reduction of MTT (3-(4,5-dimethylthiazolyl-2)-2,5-diphenyltetrazolium bromide) to formazan blue. Briefly, cells were seeded into 96-well plates at a density of 10,000 cells/well for 24 h and then incubated for 48 h with or without the compounds. Cells were then washed twice with warm PBS and incubated with MTT (0.5 mg/mL) for 2 h at 37 °C. Incubation medium was thereafter discarded and the blue formazan crystals were solubilized by adding 100 μL DMSO/well. The colour solution was subsequently read at 550 nm. Results are expressed as % of MTT reduction compared to untreated control conditions. The calculation of EC50 values was performed by using GraphPad Prism software (San Diego, CA, USA).

[2] = system: T24 (bladder) human-derived tumor cell line; assay: MTT reduction antiproliferative assay, T24 bladder cells; assay type: cell-based; conditions: 48 h incubation, mean of at least three experiments, read-out: EC50 ± SEM T24
Experimental: as §1, §2, §3, §4

[3] = system: Balb/3T3 fibroblasts vs T24, DU-145 and MCF7 tumor cells; assay: Mean selective index, fibroblasts versus tumor cells; assay type: cell-based; conditions: EC50 values fibroblasts/EC50 values tumor cells
Experimental: These values were calculated from their effects on MTT reduction in three cancer cell lines and Balb/3T3 non transformed mouse fibroblasts as a function of their concentration during 48 h of incubation.

[4] = system: MCF7 (breast) human-derived tumor cell line; assay: MTT reduction antiproliferative assay, MCF7 breast cells; assay type: cell-based; conditions: 48 h incubation, mean of at least three experiments, read-out: EC50 ± SEM MCF-7
Experimental: as §1, §2, §3, §4

[5] = system: DU-145 (prostate) human-derived tumor cell line; assay: MTT reduction antiproliferative assay, DU-145 prostate cells; assay type: cell-based; conditions: 48 h incubation, mean of at least three experiments, read-out: EC50 ± SEM DU-145
Experimental: as §1, §2, §3, §4

[6] = system: NCI screen panel; set-up: method as in PMID 9572894; conditions: read-out: mean panel GI50 (growth inhibitory) value; cited from earlier work

SMILES	EC50 [1] [µM]	EC50 [2] [µM]	MSI: Mean Selective Index [3]	EC50 [4] [µM]	EC50 [5] [µM]	melting point [°C]	GI50 [6] [µM]
COc1cccc2c1C(=O)c1c(O)c3c(c(O)c1C2=O)C[C@@](O)(C(=O)CO)C[C@@H]3O[C@H]1C[C@H](N)[C@H](O)[C@H](C)O1 [DOX, doxorubicin, reference compound]	0.19 ± 0.01	0.65 ± 0.07	0.44	0.33 ± 0.05	0.42 ± 0.03	–	–
CO[C@@]12[C@H](COC(N)=O)C3=C(C(=O)C(C)=C(N)C3=O)N1C[C@@H]1N[C@@H]12 [MIT, mitomycin C, reference compound]	27.3 ± 3.3	42.2 ± 5.8	–	16.8 ± 2.9	14.3 ± 2.6	–	–
O=C(c1ccccc1)c1cc(O)ccc1O [compound 3, (2,5-Dihydroxyphenyl)(phenyl)methanone]	38.5 ± 5.5	186 ± 20.4	0.20	190 ± 19.2	205 ± 21.5	121 to 122	–
Cc1ccccc1C(=O)c1cc(O)ccc1O [compound 4, (2,5-Dihydroxyphenyl)(2'-methylphenyl)methanone]	184 ± 17.6	172 ± 13.2	1.06	181 ± 15.8	172 ± 19.7	104 to 105	–
Cc1cccc(C(=O)c2cc(O)ccc2O)c1 [compound 5, (2,5-Dihydroxyphenyl)(3'-methylphenyl)methanone]	100 ± 9.5	202 ± 15.9	0.49	226 ± 24.2	186 ± 17.8	119 to 120	–
Cc1ccc(C(=O)c2cc(O)ccc2O)cc1 [compound 6, (2,5-Dihydroxyphenyl)(4'-methylphenyl)methanone]	78.3 ± 6.4	209 ± 19.5	0.57	142 ± 15.3	101 ± 9.5	135 to 136	–
COc1cccc(C(=O)c2cc(O)ccc2O)c1 [compound 7, (2,5-Dihydroxyphenyl)(3'-methoxyphenyl)methanone]	118 ± 19.5	210 ± 20.5	0.68	154 ± 12.3	166 ± 15.8	97 to 98	–
COc1ccc(C(=O)c2cc(O)ccc2O)cc1 [compound 8, (2,5-Dihydroxyphenyl)(4'-methoxyphenyl)methanone]	85.2 ± 9.7	168 ± 12.2	0.49	191 ± 17.5	170 ± 15.5	144 to 145	–
COc1ccc(OC)c(C(=O)c2cc(O)ccc2O)c1 [compound 9, (2,5-Dihydroxyphenyl)(2',5'-dimethoxyphenyl)methanone]	43.7 ± 7.6	150 ± 18.4	0.29	164 ± 13.8	130 ± 12.5	135 to 136	–
COc1ccc(C(=O)c2cc(O)ccc2O)cc1OC [compound 10, (2,5-Dihydroxyphenyl)(3,4-dimethoxyphenyl)methanone]	35.4 ± 4.7	147 ± 19.2	0.23	183 ± 17.7	140 ± 13.6	79 to 81	–
COc1cc(C(=O)c2cc(O)ccc2O)ccc1O [compound 11, (2,5-Dihydroxyphenyl)(4'-hydroxy-3'-methoxyphenyl)methanone]	78 ± 9.3	154 ± 14.5	0.47	177 ± 19.4	168 ± 15.9	221 to 222	–
COc1cc(C(=O)c2cc(O)ccc2O)cc(OC)c1OC [compound 12, (2,5-Dihydroxyphenyl)(3',4',5'-trimethoxyphenyl)methanone]	1.5 ± 0.4	3.6 ± 1.4	0.57	53.6 ± 6.7	1.2 ± 0.6	68 to 70	–
COc1cc(C(=O)c2cc(O)ccc2O)cc(OC)c1O [compound 13, (2,5-Dihydroxyphenyl)(4'-hydroxy-3',5'-dimethoxyphenyl)methanone]	19.1 ± 3.1	> 350	–	> 350	113 ± 10.7	200 to 201	–
Cc1ccccc1C(=O)c1cc(O)c2ccccc2c1O [compound 14, (1,4-Dihydroxynaphthalen-2-yl)(2'-methylphenyl)methanone]	226 ± 25.4	143 ± 9.5	1.54	152 ± 14.5	144 ± 17.7	132 to 133	–
Cc1cccc(C(=O)c2cc(O)c3ccccc3c2O)c1 [compound 15, (1,4-Dihydroxynaphthalen-2-yl)(3'-methylphenyl)methanone]	142 ± 13.9	137 ± 11.7	0.99	145 ± 12.7	147 ± 15.9	154 to 155	–
Cc1ccc(C(=O)c2cc(O)c3ccccc3c2O)cc1 [compound 16, (1,4-Dihydroxynaphthalen-2-yl)(4'-methylphenyl)methanone]	139 ± 15.2	135 ± 12.8	0.98	134 ± 14.9	158 ± 13.7	150 to 151	–
COc1cccc(C(=O)c2cc(O)c3ccccc3c2O)c1 [compound 17, (1,4-Dihydroxynaphthalen-2-yl)(3'-methoxyphenyl)methanone]	109 ± 11.1	133 ± 12.4	0.82	128 ± 13.6	139 ± 11.3	149 to 150	–
COc1ccc(C(=O)c2cc(O)c3ccccc3c2O)cc1 [compound 18, (1,4-Dihydroxynaphthalen-2-yl)(4'-methoxyphenyl)methanone]	107 ± 12.3	127 ± 10.6	1.03	125 ± 10.2	77.5 ± 6.5	150 to 151	–
COc1ccc(OC)c(C(=O)c2cc(O)c3ccccc3c2O)c1 [compound 19, (1,4-Dihydroxynaphthalen-2-yl)(2',5'-dimethoxyphenyl)methanone]	100 ± 8.9	130 ± 10.1	0.77	> 310	129 ± 17.2	160 to 161	–
COc1ccc(C(=O)c2cc(O)c3ccccc3c2O)cc1OC [compound 20, (1,4-Dihydroxynaphthalen-2-yl)(3',4'-dimethoxyphenyl)methanone]	2.8 ± 0.6	46.8 ± 5.1	0.11	12.2 ± 3.8	61.8 ± 5.6	212 to 213	–
COc1cc(C(=O)c2cc(O)c3ccccc3c2O)ccc1O [compound 21, (1,4-Dihydroxynaphthalen-2-yl)(4'-hydroxy-3'-methoxyphenyl)methanone]	15.7 ± 3.9	86.6 ± 9.6	0.45	15.7 ± 4.6	89 ± 7.3	221 to 222	–
COc1cc(C(=O)c2cc(O)c3ccccc3c2O)cc(OC)c1OC [compound 22, (1,4-Dihydroxynaphthalen-2-yl)(3',4',5'-trimethoxyphenyl)methanone]	25.1 ± 3.9	13.5 ± 1.9	2.45	20.2 ± 4.5	5.9 ± 0.8	189 to 191	–
COc1cc(C(=O)c2cc(O)c3ccccc3c2O)cc(OC)c1O [compound 23, (1,4-Dihydroxynaphthalen-2-yl)(4'-hydroxy-3',5'-dimethoxyphenyl)methanone]	99.6 ± 7.5	112 ± 9.3	0.84	130 ± 14.8	114 ± 9.5	173 to 174	–
COc1ccc(C(=O)c2cc(OC)c(OC)c(OC)c2)cc1O [phenstatin]	–	–	–	–	–	–	0.0601
